Laboratory results from US20200345268A1, “ISOTOPIC BIOMARKERS OF ORGANIC ACIDEMIAS” (The United States of America, as represented by the …, priority 2017, published 2020).

Columns and labels:
[1] = system: Mut^−/−; Tg^INS-MCK-Mut mice; conditions: mouse, in vivo; for Mut^+/− Oxidation Rate / Mut^−/− Oxidation Rate: ip
Method: To further assess transgene function, the in vivo oxidative capacity of Mut^−/−; Tg^INS-MCK-Mut mice was measured through detecting metabolism of numerous 1-^13C labeled fatty acids to ^13CO2 via the Kreb's Cycle.
The in vivo effects of hepatic Mut deficiency were also assessed by measuring the oxidation of 1-^13C-methionine (FIG. 1I) and 1-^13C-glycine (FIG. 1J). These labels reflect hepatic mitochondrial function and the activity of the glycine cleavage system, both known to be impaired in MMA patients.
In Vivo Stable Isotope Oxidation Studies: Stable isotope studies were performed in 4 Mut−/−; Tg^INS-MCK-Mut and 4 control littermates. Closed circuit, constant volume respiratory chambers were used to collect and measure enrichment of ^13CO2 in mice, as described previously (Chandler and Venditti, 2009 and 2010, Manoli et al 2013). Mice received IP injections with tracer amounts (10 μl/g of [10 mg/ml] tracer solution) of 99.9% ^13C-isotopomers. Aliquots of air were removed every 5-10 min, while CO2 was continuously monitored. ^13CO2 enrichment was measured by isotope ratio mass spectroscopy (Metabolic Solutions, Nashua, N.H.). […] Cumulative percentage of total isotopomer dose metabolized was subsequently calculated, using the formula: Percentage of dose metabolized=total ^13C excreted [mmol/dose (mmol)×100%].
The following 1-C labeled stable isotopes were used: ^13C Sodium Propionate, ^13C-Methionine, ^13C-Glycine, ^13C-Pyruvate, ^13C-Octanoate, ^13C-α-Ketoisocaproic Acid, ^13C-Leucine, ^13C-Acetate, ^13C-Phenylalanine. Stable isotopomers were purchased from Cambridge Isotope Laboratories. Variables were compared for each substrate and time point using a two-sided unpaired t-test and considered statistically significant at p<0.05.
These studies were conducted using N=5 mice with MMA (Mut^−/−; Tg^INS-MCK-Mut mutants) and N=5 sex matched littermates (controls). Each mouse was injected with the labels depicted in Table 3 and the oxidation rates and kinetics of ^13C/^12C CO2 enrichment were analyzed.

[2] = Test drink solution stability; assay type: physicochemical; conditions: 1 mg/ml in tap water
[3] = system: methylmalonic acidemia patients and healthy volunteers; conditions: human, in vivo
Excerpt: Percent Dose Oxidized at each time point=CO2 production rate×Σ(APE (t)/(mmol C^13 administered)×100, where CO2 production rate was the one measured by the indirect calorimetry on the same day just prior to the isotope study.
The test cohort was comprised of 41 patients with MMA (26 mut0, aged 3-37 years, 6 mut-, aged 9-30 years, and 9 cblA, aged 4-41 years), 8 healthy volunteers, and 8 heterozygote parents of affected individuals. Within the affected group, 12 individuals had previously received a liver (LT), kidney (KT), combined liver-kidney (LKT), or partial (graft) liver-kidney (pLKT) transplant (2 LT, 3 KT, 6 LKT, 1 pLKT).
A metabolic cart (ParvoMedics TrueOne2400 Sandy, Utah) was used to measure subject O2 consumption (VO2), CO2 production (VCO2), and resting energy expenditure (REE) at supine posture for 25-35 minutes. Seven of the healthy volunteers were tested three times over a two-month period to evaluate inter- and intra-individual variability.
A dose of 0.5 mg/kg (or 0.5 ml/kg) body weight (BW) was administered to the study subjects orally or through a G-tube as a bolus over no more than 2 minutes, followed by similar amount of water consumption. […] Measurements of the isotopic ratio (^13C/^12C) in expired gas were determined by isotope ratio mass spectrometry (Metabolic Solutions, Nashua, N.H.).

Cumulative % of total dose metabolized, Controls, mean (SD) [1]	Cumulative % of total dose metabolized, Mutants, mean (SD) [1]	Mut^+/− Oxidation Rate [1]	Mut^−/− Oxidation Rate [1]	Structure (SMILES)	further results
33.95 (3.66) %	24.00 (12.95) %			CC(C)CC(=O)[13C](=O)[O-].[Na+] [Sodium 1-^13C-α-Ketoisocaproic Acid]	
13.54 (1.50) %	12.44 (3.10) %			CC(C)C[C@H](N)[13C](=O)O [L-1-^13C-Leucine]	
		0.14 +/− 0.003 (n = 3) μmol/g/hour	0.07 +/− 0.007 (n = 4) μmol/g/hour	NC[13C](=O)O [1-^13C-glycine]	oxidation of label (release of label) [1]: impaired ability to release label
4.41 (2.63) %	5.15 (2.19) %			CC(C)[13C@H](N)C(=O)O [2-^13C-Valine]	
3.68 (2.34) %	3.32 (0.85) %			CC(C)C[13C@H](N)C(=O)O [L-2-^13C-Leucine]	

Further lines, the molecule ahead of its results:

Structure (SMILES)	Cumulative % of total dose metabolized, Controls, mean (SD) [1]	Cumulative % of total dose metabolized, Mutants, mean (SD) [1]	Mut^+/− Oxidation Rate [1]	Mut^−/− Oxidation Rate [1]	further results
N[C@@H](C[13c]1ccccc1)C(=O)O [L-1-^13C-Phenylalanine]	10.75 (7.38) %	5.71 (2.74) %			
CSCC[C@H](N)[13C](=O)O [1-^13C-methionine]			11.5 +/− 3.4 (n = 4) μmol/g/hour	6.5 +/− 2.5 (n = 4) μmol/g/hour	oxidation of label (release of label) [1]: impaired ability to release label
C[13C](=O)C(=O)O [Sodium 1-^13C-Pyruvate]	52.16 (17.06) %	52.99 (9.85) %			
C[13C](=O)[O-].[Na+] [1-^13C-acetate, Sodium 1-^13C-Acetate]	38.02 (11.79) %	42.23 (14.32) %	69.5 +/− 17.7 (n = 5) μmol/g/hour	88.2 +/− 26.5 (n = 5) μmol/g/hour	
CCC(=O)O [1-^13C-propionate, sodium 1-^13C-propionate]					maximal time for maintaining solution stability [2]: two; time within which the majority of the label is oxidized [3]: 15 to 30 min
